Laboratory results reported in patent US12643867B2, “Compositions and uses thereof” (University of Virginia Patent Foundation, priority 2017, dated 2026).

Target: T1, MP2K3 (Dual specificity mitogen-activated protein kinase kinase 3) (Homo sapiens, UniProt P46734)
T1 construct: Native kinases; endogenous in cells; host or cells: HEK293T soluble proteome
T1 sequence (P46734 1-347): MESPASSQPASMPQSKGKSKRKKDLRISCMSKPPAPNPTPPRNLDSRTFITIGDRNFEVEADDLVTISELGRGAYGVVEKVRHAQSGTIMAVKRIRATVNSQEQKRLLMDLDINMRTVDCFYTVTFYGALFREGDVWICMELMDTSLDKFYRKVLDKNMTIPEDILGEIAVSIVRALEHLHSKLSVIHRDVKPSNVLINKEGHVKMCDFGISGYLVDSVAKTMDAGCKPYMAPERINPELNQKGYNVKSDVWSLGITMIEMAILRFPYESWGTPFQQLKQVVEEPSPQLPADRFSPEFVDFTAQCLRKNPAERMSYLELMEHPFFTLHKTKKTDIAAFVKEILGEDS
Experiment: SILAC LC-MS ATP acyl phosphate probe competition, native kinases in HEK293T
Format: binding
Conditions: site Lys2; ATP 1 mM; Ketanserin, Ritanserin 100 μM; RF001 1 mM
Description: Proteomes were diluted to 2 mg/ml in kinase buffer. The light and heavy proteomes (0.5 mg, 250 μL total reaction volume) were pre-treated with vehicle or compound, respectively (5 μL, DMSO (light) or 50× stock in DMSO (heavy)), mixed gently, and incubated at 25° C. for 30 min. […] After incubation, matched light and heavy proteomes were transferred and mixed in a 1:1 ratio in a two-dram vial containing 4:1:3 MeOH/CHCl3/H2O (2 mL MeOH, 500 AL CHCl3, 1.5 mL H2O) for extraction of proteins to remove excess probe, quickly vortexed, and centrifuged at 1,400×g for 3 min to pellet protein. Organic and aqueous layers were removed using a Pasteur pipette, and the protein pellet was transferred to a screw-top tube in 600 μL MeOH. A second extraction was performed by adding CHCl3 (150 μL) and H2O (600 μL) to each sample, vortexed, and centrifuged at 1,400×g for 3 min to pellet protein. Organic and aqueous layers were removed by pipetting. MeOH added to pellet (600 μL) and pellets were re-suspended by sonication (3×1 sec pulse, 20% amplitude) for a final extraction. Samples were then centrifuged at 17,000×g for 5 min to pellet protein and MeOH was removed by pipetting. The pellets were re-suspended in 10 M urea/25 mM ammonium bicarbonate ([…]), brought to a final volume of 1 mL with 25 mM ammonium bicarbonate, reduced with 10 mM DTT for 15 min at 65° C. allowed to cool, and then alkylated with 40 mM iodoacetamide for 30 min at 25° C. in the dark. To desalt the samples, each was transferred to a two-dram glass vial, and to the vial 4:1:2 MeOH/CHCl3/H2O (2 mL MeOH, 500 AL CHCl3, 1 mL H2O) was added. The vials were vortexed quickly, spun at 1.400×g for 3 min to pellet protein, and aqueous and organic layers were removed using a Pasteur pipette. The resulting protein pellet was transferred to a screw-top tube in 600 μL MeOH, and then CHCl3 (150 μL) and HO (600 μL) were added to extract protein a second time. The samples were vortexed quickly, centrifuged at 1,400×g to pellet protein, and the aqueous and organic layers were removed by pipetting. Resulting protein pellet was suspended in MeOH (600 μL) via sonication (3×1 sec pulse, 20% amplitude), centrifuged at 17,000×g for 5 min to pellet protein, and MeOH removed by pipetting. Protein pellets were then re-suspended in 25 mM ammonium bicarbonate (500 μL) and digested with 7.5 μg Trypsin/Lys-C(Promega, 15 μL, 0.5 μg/μL) for 3 h at 37° C. Avidin-agarose beads (Thermo Scientific Pierce, 100 AL aliquot per sample) were washed three times by adding 10 mL DPBS, centrifuged at 1,400×g for 1 min, and decanting. This wash step was repeated for a total of 3 times. Digested protein samples were mixed with washed avidin beads (100 μL) and brought to a volume of 5.5 mL with DPBS in a 15 mL conical and rotated for 1 h to enrich samples for the covalent desthiobiotin modification. The beads were washed with 25 mM ammonium bicarbonate (3× with 10 mL, centrifuge at 1,400×g for 3 min, decant) and then H2O (3× with 10 mL, centrifuge at 1,400×g for 3 min, decant). Washed beads were then transferred to a low-bind microfuge tube, centrifuged at 1,400×g for 3 min, allowed to rest for 1 min to settle beads, and then excess H2O was removed carefully using a gel-loading pipette tip. To elute peptides, 100 μL of elution buffer (50% acetonitrile, ACN; 0.1% formic acid) was added to each sample and incubated for 3 min. Beads were spun down at 1.400×g for 3 min, allowed to rest for 1 min to settle beads, and then 75 μL of peptide-containing supernatant was removed carefully using a gel-loading pipette tip and transferred to a new low bind centrifuge tube. This step was repeated two more times with 75 μL of elution buffer and all eluent were collected into the same centrifuge tube (˜225 μL total). Peptides were dried on a speed vacuum, resulting peptide samples acidified in 5% (v/v) formic acid, and stored at −80° C. until analysis.
The peptide samples were analyzed by liquid chromatography-mass spectrometry. […]

| SILAC ratio, MP2K3 probe-modified peptide | SMILES |
| --- | --- |
| 1.2 | Fc1ccc(C(=C2CCNCC2)c2ccc(F)cc2)cc1 [RF001, 4-(Bis(4-fluorophenyl)methylene) piperidine] |
| 1.4 | O=C(c1ccc(F)cc1)C1CCN(CCn2c(=O)[nH]c3ccccc3c2=O)CC1 [Ketanserin] |

| SMILES | SILAC ratio, MP2K3 probe-modified peptide |
| --- | --- |
| Cc1nc2sccn2c(=O)c1CCN1CCC(=C(c2ccc(F)cc2)c2ccc(F)cc2)CC1 [Ritanserin] | 1.7 |
